Assay results published in US20150072026A1, “Anti-inflammatory ion and uses thereof” (Yunyuan Li, priority 2013, published 2015).

Columns and labels:
psoriasis = experiment: Spray of 10 mM NH4Cl solution on psoriasis sites of patient A; assay type: in vivo, human; conditions: 10 mM NH4Cl spray once every 2 days
Excerpt: Photos were taken before and after treatments in indicated time points. FIGS. 1, 2, 3, 4 and 5 illustrated the results of the above-identified protocol used in this study.

furuncles = experiment: Topical NH4Cl in skin moisture lotion to treat furuncles; assay type: in vivo, human; conditions: 10 mM in skin moisture lotion, 3 times a day, after 2-3 days
pain of body = experiment: Topical NH4Cl in skin moisture lotion to reduce pain of body; assay type: in vivo, human; conditions: 10 mM in skin moisture lotion, once a day, after 2-3 days
subcutaneous masses = experiment: Topical NH4Cl in skin moisture lotion to treat subcutaneous masses; assay type: in vivo, human; conditions: 10 mM in skin moisture lotion, once a day, after 2-3 days
acnes or furuncles = experiment: Topical NH4Cl lotion on face to prevent acnes or furuncles; assay type: in vivo, human; conditions: NH4+ 10 mM in skin moisture lotion, topical on face once a week
[1] = system: dermatological inflammatory diseases and other inflammatory diseases or syndrome; conditions: 10 mM, topical or gargle or spray administration

Row | Compound | psoriasis on one hand (psoriasis; 2 months, patient A (FIG. 3)) | psoriasis on both elbows (psoriasis; 3 months, patient A (FIG. 2)) | psoriasis on the back of the body (psoriasis; 3 months, patient A (FIG. 4)) | psoriasis on both hands (psoriasis; 3 months, patient A with psoriasis for 3 years (FIG. 1)) | appearance of psoriasis on feet and both knees (psoriasis; 4 months, patient A (FIG. 5)) | furuncles (pain, red, nodule) (furuncles) | pain of body (pain of body) | subcutaneous masses (subcutaneous masses) | prevention of acnes or furuncles (acnes or furuncles) | effects for dermatological inflammatory diseases (eczema, acnes, psoriasis, furuncles) and other inflammatory diseases or syndrome [1]
1 | Cl.N [NH4Cl, ammonium chloride] | cures psoriasis | cures psoriasis | cure psoriasis | cures psoriasis | improve appearance of psoriasis | furuncles were cured | completed stopped or significantly reduced | masses less than 1 cm would be disappeared | could prevent acnes or furuncles | excellent effects
2 | CC(=O)O.N [ammonium acetate] |  |  |  |  |  |  |  |  |  | excellent effects
3 | N.N.O=S(=O)(O)O [ammonium sulfate] |  |  |  |  |  |  |  |  |  | excellent effects
